# Laboratory results published in US11453666B2, “Autotaxin inhibitory compounds” (Cancer Research Technology Limited, priority 2015, dated 2022).
# Like-named read-outs stand apart in the source and are kept apart here.
# Molecular target: human recombinant ATX (Homo sapiens, UniProt Q13822)
# Test: Autotaxin (ATX) activity Quanta Red assay
# Format: biochemical
# Method: The reaction was stopped after 2 hours with a 20 μL addition of Quanta Red Stop solution (1:20 dilution in distilled water). The above-described mixture with DMSO alone was used as a positive control whereas that with DMSO alone without ATX was taken as a negative control.
# Fluorescence was determined in a BMG Labtech Pherastar plus plate reader ([…]). Data were analysed using Excel fit software. IC50 values were determined in duplicate.
# [1] = read-out: Activity (ATX activity, Quanta Red assay; IC50)
# [2] = Table 2: additional compounds tested for ATX activity (Quanta Red Assay), read-out: Activity
SMILES,IC50 [1] [nM],further results
"C[C@H](NC(=O)CCc1nc2cccnc2n1Cc1ccc(OCc2ccccc2)cc1)c1ccc(Cl)cc1 [Example 76, 3-[3-(4-Benzyloxy-benzyl)-3H-imidazo[4,5-b]pyridin-2-yl]-N-[(S)-1-(4-chloro-phenyl)-ethyl]-propionamide]",500,–
"O=C(CCc1nc2cccnc2n1Cc1ccccc1)NCC1CCCCC1 [Example 111, 3-(3-Benzyl-3H-imidazo[4,5-b]pyridin-2-yl)-N-cyclohexylmethyl-propionamide]",406,–
"O=C(CCc1nc2cccnc2n1Cc1ccc(F)c(F)c1)NC(CO)c1ccc(OC(F)(F)F)cc1 (stereo not shown) [Example 39, 3-[3-(3,4-Difluoro-benzyl)-3H-imidazo[4,5-b]pyridin-2-yl]-N-[2-hydroxy-1-(4-trifluoromethoxy-phenyl)-ethyl]-propionamide]",7,–
"C[C@H](NC(=O)CSc1nc2cccnc2n1Cc1ccc(F)cc1)c1ccc(N2CCOCC2)cc1 [Example 147, 2-[3-(4-Fluoro-benzyl)-3H-imidazo[4,5-b]pyridin-2-ylsulfanyl]-N-[(S)-1-(4-morpholin-4-yl-phenyl)-ethyl]-acetamide]",3,–
"O=C(CCc1nc2ccncc2n1Cc1ccc(OC(F)(F)F)cc1)NCc1ccc(F)cc1 [Example 133, N-(4-Fluoro-benzyl)-3-[3-(4-trifluoromethoxy-benzyl)-3H-imidazo[4,5-c]pyridin-2-yl]-propionamide]",52,–
"O=C(CCc1nc2cccnc2n1Cc1ccc(F)cc1)NC(CO)c1ccc(F)cc1 (stereo not shown) [Example 47, 3-[3-(4-Fluoro-benzyl)-3H-imidazo[4,5-b]pyridin-2-yl]-N-[1-(4-fluoro-phenyl)-2-hydroxy-ethyl]-propionamide]",19,–
"C[C@H](NC(=O)CCc1nc2cccnc2n1Cc1ccc(F)c(F)c1)c1ccc(CN(C)C)cc1 [Example 208, 3-[3-(3,4-Difluoro-benzyl)-3H-imidazo[4,5-b]pyridin-2-yl]-N-[(S)-1-(4-dimethylaminomethyl-phenyl)-ethyl]-propionamide]",80,–
"O=C(CCc1nc2cccnc2n1Cc1cccc(OC(F)(F)F)c1)NCc1cccc(OC(F)(F)F)c1 [Example 6, N-(3-Trifluoromethoxy-benzyl)-3-[3-(3-trifluoromethoxy-benzyl)-3H-imidazo[4,5-b]pyridin-2-yl]-propionamide]",476,–
"C[C@H](NC(=O)CCc1nc2ccncc2n1Cc1ccc(F)cc1)c1ccc(F)cc1 [Example 132, 3-[3-(4-Fluoro-benzyl)-3H-imidazo[4,5-c]pyridin-2-yl]-N-[(S)-1-(4-fluoro-phenyl)-ethyl]-propionamide]",–,"IC50 (human recombinant ATX 0.8 μg/mL, 2 hours at room temperature, IC50 determined in duplicate, read-out: Activity (ATX activity, Quanta Red assay; IC50)): 52 nM"
"O=C(CCc1nc2cccnc2n1Cc1ccc(OC(F)(F)F)cc1)N[C@@H](CO)Cc1ccccc1 [Example 203, N—((R)-1-Hydroxymethyl-2-phenyl-ethyl)-3-[3-(4-trifluoromethoxy-benzyl)-3H-imidazo[4,5-b]pyridin-2-yl]-propionamide]",2,–
"COc1ccc(CNC(=O)CCc2nc3cccnc3n2Cc2cccc(F)c2)cc1 [Example 110, 3-[3-(3-Fluoro-benzyl)-3H-imidazo[4,5-b]pyridin-2-yl]-N-(4-methoxy-benzyl)-propionamide]",262,–
"O=C(CCc1nc2cccnc2n1Cc1ccc(F)c(F)c1)N[C@@H]1c2ccccc2C[C@@H]1O [Example 46, 3-[3-(3,4-Difluoro-benzyl)-3H-imidazo[4,5-b]pyridin-2-yl]-N-((1R,2S)-2-hydroxy-indan-1-yl)-propionamide]",18,–
"O=C(CCc1nc2cccnc2n1Cc1ccc(OC(F)(F)F)cc1)NC[C@@H](O)c1ccccc1 [Example 36, N-((S)-2-Hydroxy-2-phenyl-ethyl)-3-[3-(4-trifluoromethoxy-benzyl)-3H-imidazo[4,5-b]pyridin-2-yl]-propionamide]",7,–
"C[C@@H]1CN(c2ccc([C@H](C)NC(=O)CCc3nc4cccnc4n3Cc3ccc(F)c(F)c3)cc2)CCN1 [Example 188, 3-[3-(3,4-Difluoro-benzyl)-3H-imidazo[4,5-b]pyridin-2-yl]-N-{(S)-1-[4-((R)-3-methyl-piperazin-1-yl)-phenyl]-ethyl}-propionamide]",15,–
"O=C(CCc1nc2cccnc2n1Cc1ccc(OC(F)(F)F)cc1)N[C@@H](Cc1ccc(O)cc1)C(=O)O [Example 200, (S)-3-(4-Hydroxy-phenyl)-2-{3-[3-(4-trifluoromethoxy-benzyl)-3H-imidazo[4,5-b]pyridin-2-yl]-propionylamino}-propionic acid]",471,–
"COc1ccc(Cn2c(CCC(=O)NCc3ccc(Cl)cc3)nc3cccnc32)cc1 [Example 218, N-(4-Chloro-benzyl)-3-[3-(4-methoxy-benzyl)-3H-imidazo[4,5-b]pyridin-2-yl]-propionamide]",–,IC50 [2]: 23 nM
"COc1ccc(Cn2c(CCC(=O)NCc3ccc(C)cc3)nc3cccnc32)cc1 [Example 220, 3-[3-(4-Methoxy-benzyl)-3H-imidazo[4,5-b]pyridin-2-yl]-N-(4-methyl-benzyl)-propionamide]",–,IC50 [2]: 125 nM

SMILES,IC50 [1] [nM],further results
"COc1ccc(Cn2c(CCC(=O)N[C@@H](C)c3ccc(C)cc3)nc3cccnc32)cc1 [Example 90, 3-[3-(4-Methoxy-benzyl)-3H-imidazo[4,5-b]pyridin-2-yl]-N-((S)-1-p-tolyl-ethyl)-propionamide]",9,–
"C[C@H](NC(=O)CCc1nc2cccnc2n1Cc1ccc(OC(F)(F)F)cc1)c1ccccn1 [Example 29, N-((S)-1-Pyridin-2-yl-ethyl)-3-[3-(4-trifluoromethoxy-benzyl)-3H-imidazo[4,5-b]pyridin-2-yl]-propionamide]",5,–
"O=C(CCc1nc2cccnc2n1Cc1ccc(OC(F)(F)F)cc1)Nc1nncs1 [Example 73, N-[1,3,4]Thiadiazol-2-yl-3-[3-(4-trifluoromethoxy-benzyl)-3H-imidazo[4,5-b]pyridin-2-yl]-propionamide]",267,–
"C[C@H](NC(=O)CCc1cc2cccnc2n1Cc1ccc(OC(F)(F)F)cc1)c1ccc(F)cc1 [Example 137, N—[(S)-1-(4-fluoro-phenyl)-ethyl]-3-[1-(4-trifluoromethoxy-benzyl)-1H-pyrrolo[2,3-b]pyridin-2-yl]-propionamide]",10,–
"COc1ccc(CNC(=O)CCc2nc3cccnc3n2Cc2ccc(OC(F)(F)F)cc2)cc1F [Example 27, N-(3-Fluoro-4-methoxy-benzyl)-3-[3-(4-trifluoromethoxy-benzyl)-3H-imidazo[4,5-b]pyridin-2-yl]-propionamide]",4,–
"Cc1ccc([C@H](C)NC(=O)CCc2nc3ccncc3n2Cc2ccc(F)cc2)cc1 [Example 131, 3-[3-(4-Fluoro-benzyl)-3H-imidazo[4,5-c]pyridin-2-yl]-N-((S)-1-p-tolyl-ethyl)-propionamide]",23,–
"O=C(CCc1nc2cccnc2n1Cc1ccc(OC(F)(F)F)cc1)N[C@H](Cc1ccccc1)C(=O)O [Example 195, (R)-3-Phenyl-2-{3-[3-(4-trifluoromethoxy-benzyl)-3H-imidazo[4,5-b]pyridin-2-yl]-propionylamino}-propionic acid]",1,–
"COc1ccc(Cn2c(CCC(=O)NCCc3ccc(C)cc3)nc3cccnc32)cc1 [Example 108, 3-[3-(4-Methoxy-benzyl)-3H-imidazo[4,5-b]pyridin-2-yl]-N-(2-p-tolyl-ethyl)-propionamide]",180,–
"C[C@H](NC(=O)CCc1nc2cccnc2n1Cc1ccc(F)c(F)c1)c1ccc(N2CCNC(C(F)(F)F)C2)cc1 (stereo partly drawn) [Example 179, 3-[3-(3,4-Difluoro-benzyl)-3H-imidazo[4,5-b]pyridin-2-yl]-N-{(S)-1-[4-(3-trifluoromethyl-piperazin-1-yl)-phenyl]-ethyl}-propionamide]",5,–
"C[C@H](NC(=O)CCc1nc2cc(Br)cnc2n1Cc1ccc(F)cc1)c1ccc(Cl)cc1 [Example 70, 3-[6-Bromo-3-(4-fluoro-benzyl)-3H-imidazo[4,5-b]pyridin-2-yl]-N-[(S)-1-(4-chloro-propionimide)]]",242,–
"COc1ccc(CNC(=O)CCc2nc3cccnc3n2Cc2ccc(C)cc2)cc1 [Example 103, N-(4-Methoxy-benzyl)-3-[3-(4-methyl-benzyl)-3H-imidazo[4,5-b]pyridin-2-yl]-propionamide]",57,–
"Cc1cnc2c(c1)nc(CCC(=O)NCc1ccc(OCCCN(C)C)cc1)n2Cc1ccc(OC(F)(F)F)cc1 [Example 26, N-[4-(3-Dimethylamino-propoxy)-benzyl]-3-[6-methyl-3-(4-trifluoromethoxy-benzyl)-3H-imidazo[4,5-b]pyridin-2-yl]-propionamide]",4,–
"C[C@H](NC(=O)CCc1cc2cccnc2n1Cc1ccc(Cl)cc1)c1ccc(F)cc1 [Example 138, 3-[1-(4-Chloro-benzyl)-1H-pyrrolo[2,3-b]pyridin-2-yl]-N-[(S)-1-(4-fluoro-phenyl)-ethyl]-propionamide]",10,–
"Cc1cnc2c(c1)nc(CCC(=O)N[C@@H](C)c1ccc(N3CCN[C@@H](C)C3)cc1)n2Cc1ccc(OC(F)(F)F)cc1 [Example 192, N-{(S)-1-[4-((S)-3-Methyl-piperazin-1-yl)-phenyl]-ethyl}-3-[6-methyl-3-(4-trifluoromethoxy-benzyl)-3H-imidazo[4,5-b]pyridin-2-yl]-propionamide]",56,–
"NC[C@H](NC(=O)CCc1nc2cccnc2n1Cc1ccc(OC(F)(F)F)cc1)c1ccccc1 [Example 210, N—((R)-2-amino-1-phenyl-ethyl)-3-[3-(4-trifluoromethoxy-benzyl)-3H-imidazo[4,5-b]pyridin-2-yl]-propionamide]",3,–
"CN(C)CCOc1ccc(CNC(=O)CCc2nc3cccnc3n2Cc2ccc(OC(F)(F)F)cc2)cc1 [Example 19, N-[4-(2-Dimethylamino-ethoxy)-benzyl]-3-[3-(4-trifluoromethoxy-benzyl)-3H-imidazo[4,5-b]pyridin-2-yl]-propionamide]",4,–
CCC[C@H](NC(=O)CCc1nc2cccnc2n1Cc1ccc(OC)cc1)c1ccccc1 [Example 99],48,–
